# Patent US4228187A, “Alkyl and cycloalkylthiophenylalkylaminoalkanols, their salts and the preparation thereof” (priority 1973, dated 1980)
# Columns and labels:
# DL50 mouse p.o. = details: in vivo, po, limits of reliability (p : 0.95) in brackets
# Description: (1) the limits of reliability (p : 0.95) are given in brackets.
# [1] = tested on: spontaneously hypertensive rat; assay: Antihypertensive activity (spontaneously hypertensive rat); type: in vivo; details: 15 mg/kg per os
# Description: (3) spontaneously hypertensive rat; 15 mg/kg per os;
# ± reduction of systolic pressure up to 10 mm of Hg
# + reduction of systolic pressure of 10 to 20 mm Hg
# ++ reduction of systolic pressure of at least 20 mm of Hg
# Hist. = assay: Antispasmodic activity, Hist.
# Ac.chol. = assay: Antispasmodic activity, Ac.chol.
# BaCl2 = assay: Antispasmodic activity, BaCl2
# guinea pig atria's = assay: Protective activity against anoxia (guinea pig atria); parameters: key: scale: + = 10 to 20% increase in survival time; details: increase in survival time
# Description: (5) guinea pig atria's;
# + = increase in survival time of 10 to 20%
# [2] = tested on: peripheral vasodilatatory activity; assay: Vasodilatory effect after intraarterial injection in dog; type: in vivo
SMILES,LD50 (DL50 mouse p.o.) [mg/kg],Anti-hypertensive activity [1],"Antispasmodic activity CE 100, Hist. (Hist.) [μ g γ 60 ml]","Antispasmodic activity CE 100, Ac.chol. (Ac.chol.) [μ g γ 60 ml]","Antispasmodic activity CE 100, BaCl2 (BaCl2) [μ g γ 60 ml]",Protective activity against anoxia (guinea pig atria's),further results
CCCCNC(CC)C(O)c1ccc(SC)cc1 (stereo not shown) [No 17],122,+ (reduction of systolic pressure of 10 to 20 mm Hg),1000,1000,1000,0,
CCCCCCCCNC(CC)C(O)c1ccc(SC)cc1 (stereo not shown) [No 18],~3500,0,200,200,500,0,
CCCCNC(CC)C(O)c1ccc(SCC)cc1 (stereo not shown) [No 19],640,,1000,1000,500,0,
CCCCCCCCNC(CC)C(O)c1ccc(SCC)cc1 (stereo not shown) [No 20],~2450,0,200,100,100,0,
CC(NC(C)(C)C)C(O)c1ccc(SC2CCCCC2)cc1 (stereo not shown) [No 21],,0,500,100,500,,
CC(C)CSc1ccc(C(O)C(C)NC(C)C)cc1 (stereo not shown) [No 22],1280,,500,1000,500,0,
CCC(C)NC(C)C(O)c1ccc(SCC(C)C)cc1 (stereo not shown) [No 23],,,200,200,500,0,
CC(C)CSc1ccc(C(O)C(C)NC(C)(C)C)cc1 (stereo not shown) [No 24],,,200,1000,500,,
CCCCNC(C)C(O)c1ccc(SCC(C)C)cc1 (stereo not shown) [No 25],1350,,200,100,200,0,
CCCCCCCCNC(C)C(O)c1ccc(SCC(C)C)cc1 (stereo not shown) [No 26],> 4000,,200,200,200,0,
CCC(NC(C)C)C(O)c1ccc(SC2CCCCC2)cc1 (stereo not shown) [No 27],,,500,200,200,,
CCCCCCNC(C)C(O)c1ccc(SC(C)C)cc1 (stereo not shown) [No 28],1450,,,,,,
CCCCCCCNC(C)C(O)c1ccc(SC(C)C)cc1 (stereo not shown) [No 29],~2400,,,,,,
CCCCCCCCNC(C)C(O)c1ccc(SC2CCCC2)cc1 (stereo not shown) [No 32],> 4000,++ (reduction of systolic pressure of at least 20 mm of Hg),,,,,
CC(C(O)c1ccc(SC2CCCCC2)cc1)N1CCCCC1 (stereo not shown) [No 33],,,> 1000,> 1000,> 1000,,
CCC(C(O)c1ccc(SC2CCCCC2)cc1)N1CCCCC1 (stereo not shown) [No 34],,,1000,100,200,,
CC(Cc1ccccc1)NC(C)C(O)c1ccc(SC(C)C)cc1 (stereo not shown) [No 35],2100,± (reduction of systolic pressure up to 10 mm of Hg),200,500,500,,
"COc1ccc(Cc2nccc3cc(OC)c(OC)cc23)cc1OC [papaverine, reference compound]",,,,,,,Amplitude (maximum vasodilatory effect) ([2]; 10 μg/kg): 40 mm of Hg; Duration of effect ([2]; 10 μg/kg): 43 s; Amplitude (maximum vasodilatory effect) ([2]; 20 μg/kg): 51 mm of Hg; Duration of effect ([2]; 20 μg/kg): 45 s; Amplitude (maximum vasodilatory effect) ([2]; 30 μg/kg): 54 mm of Hg; Duration of effect ([2]; 30 μg/kg): 47 s
